According to patent US20060073172A1, “Stabilized ophthalmic solution for the treatment of glaucoma and lowering intraocular pressure” (priority 2004, published 2006):

Columns and labels:
[1] = test system: 5-HT2 receptors; conditions: cited from earlier work; for 5-HT2 receptor subtype selectivity: 5-HT2A, 5-HT2B, 5-HT2C
[2] = Stabilization of 1-(2-aminopropyl)-indazol-6-ol by classical antioxidants; type: physicochemical; conditions: aqueous solution

Compound	5-HT2 receptor subtype selectivity [1]	5-HT2 agonist activity [1]	Stabilization by classical antioxidants (sodium metabisulfite, propyl gallate, ascorbic acid) [2]
COc1ccc2[nH]cc(CC(C)N)c2c1 (stereo not drawn) [5-methoxy-α-methyltryptamine]	profile similar to that of α-methyl-serotonin		
CC(N)Cc1c[nH]c2ccc(O)cc12 (stereo not drawn) [α-methyl-serotonin]	modest receptor subtype selectivity: 5-HT2B>5-HT2C>5-HT2A	potent 5-HT2 agonist	
CC(N)Cn1ncc2ccc(O)cc21 (centres unmarked) [AL-34662, 1-(2-aminopropyl)-indazol-6-ol]			did not stabilize
COc1cc(C[C@@H](C)N)c(OC)cc1I [(R)-DOI, (R)4-iodo-2,5 dimethoxy-α-methyl-benzeneethanamine]	not selective amongst the 5-HT2 receptor subtypes		
